Columns and labels:
[1] = target: T1, Serine/threonine-protein kinase D3 (Homo sapiens) (UniProt O94806); assay: Selectivity interaction (ActivX KiNativ screen (kinase selectivity in THP-1 cell lysates)) EUB0000639a PRKD3; type: subcellular; conditions: lysate, at 0.01 µM
T1 sequence (whole entry): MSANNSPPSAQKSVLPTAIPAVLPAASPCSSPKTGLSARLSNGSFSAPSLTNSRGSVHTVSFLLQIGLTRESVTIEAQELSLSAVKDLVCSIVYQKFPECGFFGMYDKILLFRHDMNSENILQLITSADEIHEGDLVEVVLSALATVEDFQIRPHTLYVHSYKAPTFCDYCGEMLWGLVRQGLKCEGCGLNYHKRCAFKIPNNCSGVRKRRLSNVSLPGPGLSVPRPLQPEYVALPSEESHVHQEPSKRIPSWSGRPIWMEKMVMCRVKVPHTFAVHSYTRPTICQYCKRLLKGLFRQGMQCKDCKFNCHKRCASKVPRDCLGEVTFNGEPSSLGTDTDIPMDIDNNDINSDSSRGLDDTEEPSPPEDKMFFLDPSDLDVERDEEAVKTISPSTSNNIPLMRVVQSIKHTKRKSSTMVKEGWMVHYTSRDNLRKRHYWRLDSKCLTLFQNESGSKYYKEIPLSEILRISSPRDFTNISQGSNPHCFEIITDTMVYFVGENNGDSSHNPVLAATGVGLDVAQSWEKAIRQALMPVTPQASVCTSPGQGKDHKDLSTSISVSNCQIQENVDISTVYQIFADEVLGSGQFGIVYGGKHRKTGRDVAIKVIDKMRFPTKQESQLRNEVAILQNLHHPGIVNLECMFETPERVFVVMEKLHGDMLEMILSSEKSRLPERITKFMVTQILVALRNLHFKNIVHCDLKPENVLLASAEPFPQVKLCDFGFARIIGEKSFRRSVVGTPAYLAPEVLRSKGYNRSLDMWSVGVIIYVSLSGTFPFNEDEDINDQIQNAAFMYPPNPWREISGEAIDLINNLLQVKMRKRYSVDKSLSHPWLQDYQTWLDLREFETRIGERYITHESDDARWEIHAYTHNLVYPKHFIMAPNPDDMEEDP

[2] = target: T2, cGMP-dependent protein kinase 2 (Homo sapiens) (UniProt Q13237); assay: Selectivity interaction (KinomeScan (DiscoverX)) EUB0000045b PRKG2
T2 sequence (whole entry): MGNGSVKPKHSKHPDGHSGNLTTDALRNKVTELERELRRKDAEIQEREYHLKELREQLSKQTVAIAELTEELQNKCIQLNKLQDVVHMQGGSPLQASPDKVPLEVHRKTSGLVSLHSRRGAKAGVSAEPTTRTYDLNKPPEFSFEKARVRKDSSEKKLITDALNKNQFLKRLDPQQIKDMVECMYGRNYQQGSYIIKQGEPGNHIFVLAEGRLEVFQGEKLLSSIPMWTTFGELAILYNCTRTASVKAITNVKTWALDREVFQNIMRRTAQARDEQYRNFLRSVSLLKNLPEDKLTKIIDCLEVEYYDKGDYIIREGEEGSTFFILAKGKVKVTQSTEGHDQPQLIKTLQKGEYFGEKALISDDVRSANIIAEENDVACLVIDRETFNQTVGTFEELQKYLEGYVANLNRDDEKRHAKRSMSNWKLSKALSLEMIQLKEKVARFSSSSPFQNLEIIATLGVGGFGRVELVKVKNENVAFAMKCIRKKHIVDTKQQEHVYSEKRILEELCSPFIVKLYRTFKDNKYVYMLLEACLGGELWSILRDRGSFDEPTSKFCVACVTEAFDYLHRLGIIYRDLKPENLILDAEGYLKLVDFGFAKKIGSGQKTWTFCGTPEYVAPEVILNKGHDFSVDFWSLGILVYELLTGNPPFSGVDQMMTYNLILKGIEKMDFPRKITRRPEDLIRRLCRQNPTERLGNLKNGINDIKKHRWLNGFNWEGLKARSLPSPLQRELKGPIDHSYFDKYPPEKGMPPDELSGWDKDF

[3] = target: T3, Mitogen-activated protein kinase kinase kinase kinase 3 (Homo sapiens) (UniProt Q8IVH8); conditions: at 10 µM
T3 sequence (whole entry): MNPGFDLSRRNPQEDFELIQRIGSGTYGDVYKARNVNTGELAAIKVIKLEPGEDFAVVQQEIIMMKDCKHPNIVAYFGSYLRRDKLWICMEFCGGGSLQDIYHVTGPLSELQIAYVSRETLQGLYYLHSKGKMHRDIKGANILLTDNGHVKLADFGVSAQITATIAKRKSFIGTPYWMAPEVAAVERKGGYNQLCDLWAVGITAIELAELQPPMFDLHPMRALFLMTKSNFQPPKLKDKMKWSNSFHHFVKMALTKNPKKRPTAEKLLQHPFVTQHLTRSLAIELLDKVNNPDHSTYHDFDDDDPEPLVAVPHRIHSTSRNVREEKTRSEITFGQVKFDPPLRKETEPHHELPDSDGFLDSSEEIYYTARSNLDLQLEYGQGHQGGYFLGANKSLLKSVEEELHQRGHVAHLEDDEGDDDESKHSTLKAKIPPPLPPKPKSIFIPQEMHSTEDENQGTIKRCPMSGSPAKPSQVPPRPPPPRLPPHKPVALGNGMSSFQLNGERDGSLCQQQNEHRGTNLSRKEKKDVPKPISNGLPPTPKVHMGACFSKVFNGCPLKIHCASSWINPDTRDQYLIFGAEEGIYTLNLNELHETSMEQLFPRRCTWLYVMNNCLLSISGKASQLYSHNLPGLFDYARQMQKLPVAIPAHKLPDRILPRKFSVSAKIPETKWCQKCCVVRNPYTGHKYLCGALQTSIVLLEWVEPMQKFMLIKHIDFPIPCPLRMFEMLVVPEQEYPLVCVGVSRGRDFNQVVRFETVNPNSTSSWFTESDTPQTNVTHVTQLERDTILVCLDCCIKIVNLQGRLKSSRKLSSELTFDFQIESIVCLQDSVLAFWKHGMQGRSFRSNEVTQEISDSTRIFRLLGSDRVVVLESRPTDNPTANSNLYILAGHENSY

[4] = target: Histone-lysine N-methyltransferase SUV39H2 (Homo sapiens) (UniProt Q9H5I1); assay: Selectivity interaction (Methyltransferase screen (radiometric assays, panel of 8 PRMTs, 21 protein lysine methyltransferases, 3 DNA methyltransferases, and one RNA methyltransferase)) EUB0000271b SUV39H2
Chain of Histone-lysine N-methyltransferase SUV39H2 (Homo sapiens) (Q9H5I1 whole entry): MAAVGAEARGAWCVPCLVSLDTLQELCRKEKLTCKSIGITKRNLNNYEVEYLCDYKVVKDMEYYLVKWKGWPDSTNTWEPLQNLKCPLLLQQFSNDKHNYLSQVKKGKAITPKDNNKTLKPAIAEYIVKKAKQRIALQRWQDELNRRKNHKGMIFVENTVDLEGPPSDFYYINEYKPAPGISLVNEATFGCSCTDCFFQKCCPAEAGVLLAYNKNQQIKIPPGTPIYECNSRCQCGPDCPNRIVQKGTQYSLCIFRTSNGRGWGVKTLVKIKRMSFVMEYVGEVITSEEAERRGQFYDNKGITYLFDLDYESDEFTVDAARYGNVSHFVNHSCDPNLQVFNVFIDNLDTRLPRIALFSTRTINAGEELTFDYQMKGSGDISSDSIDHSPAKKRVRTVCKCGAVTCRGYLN

CC[C@@H]1[C@H](F)C(=O)N[C@@H]1COc1nccc2cc(C(N)=O)c(OC)cc12 [ZIMLOVISERTIB]
% of inhibition [1]: 0%

C=CC(=O)Nc1cc(-n2c(=O)ccc3cnc4ccc(-c5ccc(NS(C)(=O)=O)cc5)cc4c32)ccc1C
% of control ([2]; at 1 µM): 100% | % of control ([2]; at 10 µM): 95%

Cc1cc([C@@H](C)Nc2ccccc2C(=O)O)c2nc(N3CCOCC3)cc(=O)n2c1 [AZD-6482]
% of control [3]: 88%

Cc1cc(C)cc([C@@H]2c3cc(C)ccc3NC(=O)CN2C(=O)c2ccc(Br)s2)c1
% of activity ([4]; at 1 µM): 99.3% | % of activity ([4]; at 10 µM): 98.3%

From ChEMBL document CHEMBL5465560, “Selectivity Literature for EUbOPEN Chemogenomic Library” (2024)
